Series [1] in a line: Distribution in plasma, liver and kidney in the aristolochic acid mouse model (repeated i.p.). The class given is in vivo. The conditions noted are these: AA-exposed mice, 11a 10 mg/kg b.i.d. i.p. repeated, 13 h. On the procedure: (§1) For PK evaluation, the compounds were administered i.p to male C57BL/6 mice in suspension (gelatine/saline 7.5%/0.62% in water) using an administration volume of 4 mL/kg. Blood samples were collected in tubes containing EDTA, plasma was separated by centrifugation and stored at −80° C. Liver and kidney samples (˜100 mg aliquots) were homogenized in three volumes of water using Precellys tissue homogenization tubes (precellys.com). 25 μL of each tissue homogenate was further diluted with 25 μL blank plasma to produce the final tissue homogenate for extraction. All samples were analyzed using protein precipitation followed by LC-MS/MS analysis. Briefly, 50 μL plasma or final tissue homogenate were mixed with 50 μL 0.5M HClO4/acetonitrile 9/1 (containing 200 ng/mL internal standard bosentan). Samples were stirred and 300 μL water was added followed by centrifugation at 5600 rpm (4° C., 10 min). 10 μL supernatant was analyzed by LC/MS analysis. Calibration standards in plasma were prepared the same way. The LC column and conditions used were: Phenomenex, Polar RP, 4 μm, 50×2.1 mm at 0.4 mL/min flow rate with a 3 min gradient from 95% solvent A to 95% solvent B (Solvent A: Water/ACN/HCOOH, 90:10:0.1+10 mM NH4 formate; Solvent B: Water/ACN/HCOOH, 10:90:0.1+10 mM NH4 formate). Mass spectrometric conditions were: Thermo TSQ Vantage with positive heated electrospray ionization in MS/MS mode. Compounds mass transitions monitored were m/z 320.7 to 119.9. PK parameters for all studies were calculated using Phoenix WinNonlin Software.
All experiments with animals were conducted in accordance with federal and local regulation at the respective study location. Kidney injury was induced by intraperitoneal (i.p). injection of aristolochic acid (AA, Sigma-Aldrich, 1×5 mg/kg) in 10 weeks old BALB/c male mice. The γ-secretase inhibitors prodrugs were diluted in NaCl 0.9% and administered i.p., starting one day before the injection of AA (day −1) and then twice daily until day 6 evening (n=5 mice/experimental group). […] The kidneys were cut in four fragments. One fragment was immediately frozen in liquid nitrogen, one fragment was included in OCT (Tissue-Tek, VWR International, Switzerland) and frozen, one fragment was frozen at −80° C. and one fragment was fixed in 4% paraformaldehyde and included in paraffin.
To investigate potential nephroprotective effects of Notch blockade using γ-secretase inhibition and to evaluate the effects of our enzyme-targeted prodrug strategy, we used the in vivo AA mouse model of acute renal tubular damage. […]
Plasma and tissue concentrations of administered compound (Table 6A-C) and formed free γ-secretase inhibitor (8) (Table 6A) or amine-SecrI (11a) (Table 6B-C) were determined following 8-day repeated i.p. administration at 10 mg/kg b.i.d. (Table 6A) or 30 mg/kg b.i.d. […] Numbers in parentheses represent relative amounts with the exposure of 11a in kidney arbitrarily set at each time point to 100%. […] BQL=below quantifiable limit.

Series [2] is described as follows: Pharmacokinetic assessment in male Wistar rats (i.v.). The conditions noted are these: for 8 in kidney, relative amount (arbitrarily set to 100%) / 8 in liver, relative amount (kidney = 100%) / concentration at 0.25 h / concentration at 1.25 h / concentration at 2.2 h / concentration at 7 h: 8 3.5 mg/kg i.v.; for concentration at 0.25 h / concentration at 1.25 h / concentration at 2.2 h / concentration at 7 h: rat, iv. The class given is in vivo, rat. On the procedure:
as §1
We next determined the stability, tissue distribution and cleavage rate in plasma, liver and kidney of the designed prodrugs in male Wistar rats. In the in vivo screen, the kinetics and distribution of the prodrugs Ac-γ-Glu-SecrI (13a) and Ac-γ-Glu-O-SecrI (13c) were compared with the active γ-secretase inhibitor SecrI (8). After i.v. administration in male Wistar rats, the disappearance of the prodrugs and the formation of the active amine-SecrI (11a), amine-O-SecrI (11b) and SecrI (8) were compared in plasma, liver and kidney (Table 7A-C). First, we determined the pharmacokinetics (PK) behavior of SecrI (8) following i.v. administration (Table 7A). […] Liver and kidney exposure were much higher, with same exposure in liver and kidney. […] The selectivity towards kidney stayed constant over time. The carbonate analogue Ac-γ-Glu-O-SecrI (13c) prodrug was converted to a lower extent than the Ac-γ-Glu-SecrI (13a) to amine-O-SecrI (11b) but more to the linker free γ-secretase inhibitor 8 (Table 7C).
Plasma and tissue concentrations of administered compound (A-C) and formed amine-SecrI (11a), amine-O-SecrI (11b) or SecrI (8) (B-C) were determined following i.v. administration in rats (no standard deviation given due to sparse sampling; n≤3 rats per time point). Numbers in parentheses represent relative amounts with the exposure of kidney arbitrarily set at each time point to 100%. […] BQL=below quantifiable limit.

Series [3] can be described thus: Pharmacokinetic assessment in C57BL/6 healthy wild-type mice (i.p.). The class given is in vivo, mouse. The following applies: C57BL/6 mice, 10 mg/kg i.p.; for concentration at 0.5 h / concentration at 4 h / concentration at 7 h: male, mouse, ip. On the procedure: as §1
We next determined the stability, tissue distribution and cleavage rate in plasma, liver and kidney of the designed prodrugs in non-diseased mice. In the in vivo screen, the kinetics and distribution of γ-secretase inhibitor prodrugs Ac-γ-Glu-SecrI (13a), Ac-α-Glu-SecrI (15a) and H-α-Glu-SecrI (15b) were compared with the active γ-secretase inhibitor amine-SecrI (11a). After i.p administration (10 mg/kg) in C57BL/6 mice, the disappearance of the prodrugs and the formation of the active amine-SecrI (11a) were compared in plasma, liver and kidney (Table 5). First, we determined the pharmacokinetics (PK) behavior of amine-SecrI (11a) following i.p. administration (Table 5A). […] Liver and kidney exposure were much higher, with approximately 4.5-fold higher exposure in liver compared to kidney. […] The selectivity towards kidney appeared to decrease over time, probably due to fast clearance and re-equilibration of the amine-SecrI (11a). However, the high selectivity at earlier time-points assured that the total exposure over time was much higher in the kidney compared to the liver.

[4] abbreviates: kidney, read-out: Kidney concentration of administered compound.
Setting [5] is: liver, read-out: Liver concentration of administered compound.
The mark [6] stands for this setting: plasma, read-out: Plasma concentration of administered compound.

These results are taken from patent publication US10632127B2, “Targeted notch pathway inhibitors” (Hoffmann-La Roche Inc., priority 2015, dated 2020).

Where two headings read alike, the source gives them in different places.

As for `C[C@H]1Oc2ccc(F)cc2N(CCO)C(=O)[C@H]1NC(=O)[C@@](C)(O)C(=O)NCC(F)(F)C(F)(F)F` [Compound 8, N-[(6R,7S)-2-Fluoro-9-(2-hydroxy-ethyl)-6-methyl-8-oxo-6,7,8,9-tetrahydro-5-oxa-9-aza-benzocyclohepten-7-yl]-2-(S)-hydroxy-2-methyl-N′-(2,2,3,3,3-pentafluoro-propyl)-malonamide], the “Plasma concentration of formed 8” value in series [1] is reported as “BQL”; in series [2] (13c 1.5 mg/kg i.v., 4 h) it was “BQL”; in series [2] (13c 1.5 mg/kg i.v., 7 h), “BQL”. In addition, the “8 in kidney, relative amount (arbitrarily set to 100%)” value in series [2] (0.25 h), in series [2] (1.25 h), in series [2] (2.2 h) and in series [2] (7 h) was “(100) %” in each case. For the same compound, the “8 in liver, relative amount (kidney = 100%)” value is on record as “(93) %” in series [2] (0.25 h), “(101) %” in series [2] (1.25 h), “(133) %” in series [2] (2.2 h) and “(126) %” in series [2] (7 h). Besides, the “Formed 8 in kidney, relative amount (arbitrarily set to 100%)” value in series [2] (13c 1.5 mg/kg i.v., 7 h) is on record as “(100) %”. Moreover, in series [2] (13c 1.5 mg/kg i.v., 7 h), the “Formed 8 in liver, relative amount (kidney = 100%)” value was “(43) %”. The “kidney selectivity, in words” value in series [2] (formed after 13c i.v.) was “only a moderate kidney selectivity”. Further, in series [2] (i.v.), the “plasma clearance, in words” value is on record as “rapid plasma clearance”. Also, in series [2] (i.v.), the “plasma exposure, in words” value is given as “good plasma exposure”. Further, the concentration at 0.25 h worked out at 3320 ng/g in series [2] (kidney, 0.25 h, read-out: Kidney concentration of 8); 3100 ng/g in series [2] (liver, 0.25 h, read-out: Liver concentration of 8); 964 ng/mL in series [2] (plasma, 0.25 h, read-out: Plasma concentration of 8). For the same compound, the concentration at 1.25 h in series [2] (kidney, 1.25 h, read-out: Kidney concentration of 8) turned out to be 844 ng/g; in series [2] (liver, 1.25 h, read-out: Liver concentration of 8), 852 ng/g; in series [2] (plasma, 1.25 h, read-out: Plasma concentration of 8), 198 ng/mL. Besides, the concentration at 2.2 h was found to be 225 ng/g in series [2] (kidney, 2.2 h, read-out: Kidney concentration of 8); 298 ng/g in series [2] (liver, 2.2 h, read-out: Liver concentration of 8); 39.7 ng/mL in series [2] (plasma, 2.2 h, read-out: Plasma concentration of 8). Further, the concentration at 7 h in series [2] (kidney, 7 h, read-out: Kidney concentration of 8) was 92.4 ng/g; in series [2] (liver, 7 h, read-out: Liver concentration of 8) it was 116 ng/g; in series [2] (plasma, 7 h, read-out: Plasma concentration of 8), 18.4 ng/mL.

As for `CC(=O)N[C@@H](CCC(=O)O)C(=O)NCCNC(=O)OCCN1C(=O)[C@@H](NC(=O)[C@@](C)(O)C(=O)NCC(F)(F)C(F)(F)F)[C@@H](C)Oc2ccc(F)cc21` [Compound 15a, (S)-4-acetamido-5-(2-((2-((2R,3S)-7-fluoro-3-((S)-2-hydroxy-2-methyl-3-oxo-3-(2,2,3,3,3-pentafluoropropylamino)propanamido)-2-methyl-4-oxo-3,4-dihydrobenzo[b][1,4]oxazepin-5(2H)-yl)ethoxy)carbonylamino)ethylamino)-5-oxopentanoic acid], the “conversion to amine-SecrI (11a), in words” value in series [3] is given as “much lower extent”. In series [3] (4 h), the “Plasma concentration of administered compound” value was “BQL”. For the same compound, the concentration at 0.5 h worked out at 7540 ng/g in series [3] (setting [4]), 7220 ng/g in series [3] (setting [5]) and 573 ng/mL in series [3] (setting [6]). Moreover, the concentration at 4 h in series [3] (kidney, 4 h, read-out: Kidney concentration of administered compound) came out at 81 ng/g; in series [3] (liver, 4 h, read-out: Liver concentration of administered compound), 2850 ng/g. Besides, the concentration at 7 h is 33.8 ng/g in series [3] (setting [4]), 737 ng/g in series [3] (setting [5]) and 6.29 ng/mL in series [3] (setting [6]).
